Assay results: patent US8933056B2, “Soft protease inhibitors and pro-soft forms thereof” (Trustees of Tufts College, priority 2005, dated 2015)
Like-named read-outs stand apart in the source and are kept apart here.

Tests used:
[1] = biological target: DP-IV (Sus scrofa (Pig), UniProt P22411); experiment: DPP IV inhibition: thioxamide v. oxoamide; format: biochemical, porcine; details: for Inactivation Index: IC50 pH 8.0 to pH 2.0
Procedure: The inhibitory activity of a compound may be tested easily. […] A compound is then screened for its ability to inhibit the protease activity of DP-IV with respect to a […] substrate. […] Briefly, a reaction containing 50 micromol sodium Hepes (pH 7.8), 10 micromol Ala-Pro-p-nitroanilide, 6 milliunits of DP-IV, and 2% (vol/vol) dimethylformamide in a total volume of 1.0 mL. The reaction was initiated by the addition of enzyme and reaction rates were measured at 25 C; formation of reaction product (para-nitroanilide) in the presence and absence of a test compound can be detected photometrically, e.g., at 410 nm.

[2] = biological target: Proteasome (Homo sapiens, UniProt P28074); experiment: X-boroLeu proteasome inhibition: thioxamide v. oxoamide; format: biochemical; details: IC50 ph 7.6 to ph 2.0
Sequence of Proteasome (P28074 60-263 limits assumed): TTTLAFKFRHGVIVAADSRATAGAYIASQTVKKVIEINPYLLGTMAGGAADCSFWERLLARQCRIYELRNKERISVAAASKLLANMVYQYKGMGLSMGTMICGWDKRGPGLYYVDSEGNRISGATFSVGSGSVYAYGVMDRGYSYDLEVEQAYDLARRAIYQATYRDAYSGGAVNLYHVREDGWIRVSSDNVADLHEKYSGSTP

[3] = biological target: T1, DPPIV (Homo sapiens (Human), UniProt P27487); experiment: physchem; details: pH 7.8
T1 sequence (P27487 whole entry, species assumed): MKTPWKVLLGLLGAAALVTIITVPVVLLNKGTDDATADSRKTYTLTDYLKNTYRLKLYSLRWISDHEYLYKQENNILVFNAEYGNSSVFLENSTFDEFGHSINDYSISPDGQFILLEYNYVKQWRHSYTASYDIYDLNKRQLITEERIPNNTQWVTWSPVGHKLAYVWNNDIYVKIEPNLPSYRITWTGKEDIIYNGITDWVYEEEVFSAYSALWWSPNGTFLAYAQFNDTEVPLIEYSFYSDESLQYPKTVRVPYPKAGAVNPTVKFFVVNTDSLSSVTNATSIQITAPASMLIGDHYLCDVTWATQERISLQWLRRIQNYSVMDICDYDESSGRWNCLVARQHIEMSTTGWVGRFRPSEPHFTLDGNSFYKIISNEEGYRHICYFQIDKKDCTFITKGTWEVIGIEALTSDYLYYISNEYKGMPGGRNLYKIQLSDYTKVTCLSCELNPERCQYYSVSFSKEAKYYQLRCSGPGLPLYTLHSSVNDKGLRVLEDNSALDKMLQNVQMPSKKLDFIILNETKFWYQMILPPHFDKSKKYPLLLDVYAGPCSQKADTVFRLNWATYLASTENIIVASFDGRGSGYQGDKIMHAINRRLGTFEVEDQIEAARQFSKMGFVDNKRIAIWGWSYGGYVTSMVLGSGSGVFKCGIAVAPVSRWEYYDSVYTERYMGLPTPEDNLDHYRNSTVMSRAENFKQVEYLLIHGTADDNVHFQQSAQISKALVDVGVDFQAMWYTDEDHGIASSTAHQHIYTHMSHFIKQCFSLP
Procedure: DPP IV inhibition was measured at various times after the pH jump and the IC50 values were plotted as a function of time. […] This value was fit to a single exponential.

[4] = Inactivation at pH 7.8 followed by 1H NMR; format: physicochemical; details: sodium phosphate buffer; pH jump from pH 2 to pH 7.8, 1H NMR integrals fit to single exponential; read-out: half-life for the inactivation reaction
[5] = biological target: DP9 (Homo sapiens (Human), UniProt Q86TI2); experiment: Selectivity for dipeptidyl peptidase isoforms, DP9; format: biochemical; details: for DP9 Ratio: IC50 pH 7.8 to pH 2
Sequence of DP9 (Q86TI2 whole entry, species assumed, canonical isoform): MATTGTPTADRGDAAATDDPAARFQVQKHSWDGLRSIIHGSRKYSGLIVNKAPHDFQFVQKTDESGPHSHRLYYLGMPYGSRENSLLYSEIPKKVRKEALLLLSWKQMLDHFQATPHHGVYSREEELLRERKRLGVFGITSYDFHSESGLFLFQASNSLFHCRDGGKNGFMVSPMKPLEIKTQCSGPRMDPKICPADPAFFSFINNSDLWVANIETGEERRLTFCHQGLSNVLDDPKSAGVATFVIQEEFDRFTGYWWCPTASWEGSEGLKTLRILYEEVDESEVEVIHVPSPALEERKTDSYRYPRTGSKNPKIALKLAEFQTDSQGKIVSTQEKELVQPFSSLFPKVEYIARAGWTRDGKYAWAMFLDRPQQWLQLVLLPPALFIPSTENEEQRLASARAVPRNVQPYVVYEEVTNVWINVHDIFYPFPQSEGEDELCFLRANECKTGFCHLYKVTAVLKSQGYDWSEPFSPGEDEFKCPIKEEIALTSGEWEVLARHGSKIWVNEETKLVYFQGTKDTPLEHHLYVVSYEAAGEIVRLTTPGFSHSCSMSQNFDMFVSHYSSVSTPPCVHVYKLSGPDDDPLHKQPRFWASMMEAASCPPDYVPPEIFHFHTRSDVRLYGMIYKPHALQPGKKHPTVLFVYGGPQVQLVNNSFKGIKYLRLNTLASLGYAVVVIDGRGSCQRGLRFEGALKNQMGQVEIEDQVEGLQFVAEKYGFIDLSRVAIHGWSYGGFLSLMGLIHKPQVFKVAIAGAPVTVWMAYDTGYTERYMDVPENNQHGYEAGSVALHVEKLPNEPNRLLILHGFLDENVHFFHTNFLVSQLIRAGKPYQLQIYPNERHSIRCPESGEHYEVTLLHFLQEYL
Procedure: (§1) The inhibitor solution is prepared by dissolving 3-5 mg of inhibitor in pH 2 solution (0.01 N HCl), such that the concentration of the solution is equal to 1 mg/10 mL. A 10 μL sample of this solution is then added to 990 μL of pH 8 buffer (0.1 M HEPES, 0.14 M NaCl), and the solution is allowed to stand at room temperature overnight.
(§2) The substrate solution is prepared by dissolving 2.0 mg of L-alanyl-L-proline-para-nitroanilide into 20 mL of pH 8 buffer.
(§3) 250 μL of enzyme solution is added to well #B1 to #H1, #A2 to #H2, and #A3 to #H3 of a 96 well plate, while well #A1 receives 250 μL of pH 8 buffer instead of enzyme solution.
(§4) A 1:10 dilution is then performed by adding inhibitor solution to #A5 and the solution is mixed well before transferring 10 μL of this solution from #A5 to #B5. The solution in #B5 is then mixed well before transferring 10 μL of this solution from #B5 to #C5. The solution in #C5 is then mixed well before transferring 10 μL of this solution from #C5 to #D5. The solution in #D5 is then mixed well before transferring 10 μL of this solution from #D5 to #E5. The solution in #E5 is then mixed well before transferring 10 μL of this solution from #E5 to #F5. The solution in #F5 is then mixed well before transferring 10 μL of this solution from #F5 to #G5. The solution in #G5 is then mixed well before transferring 10 μL of this solution from #G5 to #H5.
(§5) A 30 μL aliquot is then transferred from #H5 to #H3 for row H, and the contents are mixed well. The analogous procedure is repeated for rows G, F, E, D, C, B, and A sequentially. The plate is then shaken on a plate shaker for 5 min before allowing the plate to incubate at room temperature for an additional 5 min.
(§6) Once the plate has been allowed to incubate, 30 μL of substrate is added to each well except well #A1. […] The absorbance is then immediately read at a wavelength of 410 nm.
(§7) In this example, the assay is conducted for DPIV and DP8 or DP9. The ratio of IC50 values for each tested compound is calculated in order to determine the selectivity for the DPIV isoform. […]

[6] = biological target: T1, DPPIV; experiment: DPIV inhibition assay (Examples 2 and 3); format: biochemical; details: for DPPIV Ratio: IC50 pH 7.8 to pH 2
Procedure: as §1, §2, §3, §4, §5, §6, §7

[7] = biological target: DP8 (Homo sapiens (Human), UniProt Q6V1X1); experiment: Selectivity for dipeptidyl peptidase isoforms, DP8; format: biochemical; details: for DP8 Ratio: IC50 pH 7.8 to pH 2
Sequence of DP8 (Q6V1X1 whole entry, species assumed, canonical isoform): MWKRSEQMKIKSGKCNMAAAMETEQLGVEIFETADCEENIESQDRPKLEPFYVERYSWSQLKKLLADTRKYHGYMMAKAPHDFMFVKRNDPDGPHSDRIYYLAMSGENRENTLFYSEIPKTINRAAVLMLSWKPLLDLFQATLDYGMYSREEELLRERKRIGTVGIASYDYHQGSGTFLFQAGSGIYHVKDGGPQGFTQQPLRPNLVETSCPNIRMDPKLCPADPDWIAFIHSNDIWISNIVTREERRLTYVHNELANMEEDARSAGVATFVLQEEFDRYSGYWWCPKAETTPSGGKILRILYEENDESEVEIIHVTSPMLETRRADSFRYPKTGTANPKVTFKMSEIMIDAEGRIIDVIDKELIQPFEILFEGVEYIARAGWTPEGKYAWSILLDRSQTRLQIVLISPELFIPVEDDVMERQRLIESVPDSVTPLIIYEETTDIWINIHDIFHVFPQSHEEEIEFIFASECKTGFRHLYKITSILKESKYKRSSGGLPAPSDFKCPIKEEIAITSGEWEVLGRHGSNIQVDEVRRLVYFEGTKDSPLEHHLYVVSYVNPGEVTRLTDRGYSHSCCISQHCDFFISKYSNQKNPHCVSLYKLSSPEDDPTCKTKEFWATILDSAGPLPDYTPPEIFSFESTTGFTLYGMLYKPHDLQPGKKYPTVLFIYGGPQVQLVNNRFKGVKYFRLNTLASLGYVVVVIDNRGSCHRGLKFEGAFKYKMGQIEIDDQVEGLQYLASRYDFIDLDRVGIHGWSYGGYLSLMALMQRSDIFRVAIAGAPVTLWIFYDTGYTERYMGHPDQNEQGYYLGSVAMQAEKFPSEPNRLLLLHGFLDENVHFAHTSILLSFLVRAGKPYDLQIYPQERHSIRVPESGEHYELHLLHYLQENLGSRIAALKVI
Procedure: as §1, §2, §3, §4, §5, §6, §7

[8] = pH 2.0, read-out: IC50 (pH 2.0)
[9] = pH 8.0, read-out: IC50 (pH 8.0)
[10] = pH 7.8, read-out: IC50s DP9 pH 7.8
[11] = pH 2, read-out: IC50s DPPIV pH 2
[12] = pH 7.8, read-out: IC50s DPPIV pH 7.8
[13] = pH 7.8, read-out: IC50s DP8 pH 7.8

Sequence of DP-IV (P22411 whole entry): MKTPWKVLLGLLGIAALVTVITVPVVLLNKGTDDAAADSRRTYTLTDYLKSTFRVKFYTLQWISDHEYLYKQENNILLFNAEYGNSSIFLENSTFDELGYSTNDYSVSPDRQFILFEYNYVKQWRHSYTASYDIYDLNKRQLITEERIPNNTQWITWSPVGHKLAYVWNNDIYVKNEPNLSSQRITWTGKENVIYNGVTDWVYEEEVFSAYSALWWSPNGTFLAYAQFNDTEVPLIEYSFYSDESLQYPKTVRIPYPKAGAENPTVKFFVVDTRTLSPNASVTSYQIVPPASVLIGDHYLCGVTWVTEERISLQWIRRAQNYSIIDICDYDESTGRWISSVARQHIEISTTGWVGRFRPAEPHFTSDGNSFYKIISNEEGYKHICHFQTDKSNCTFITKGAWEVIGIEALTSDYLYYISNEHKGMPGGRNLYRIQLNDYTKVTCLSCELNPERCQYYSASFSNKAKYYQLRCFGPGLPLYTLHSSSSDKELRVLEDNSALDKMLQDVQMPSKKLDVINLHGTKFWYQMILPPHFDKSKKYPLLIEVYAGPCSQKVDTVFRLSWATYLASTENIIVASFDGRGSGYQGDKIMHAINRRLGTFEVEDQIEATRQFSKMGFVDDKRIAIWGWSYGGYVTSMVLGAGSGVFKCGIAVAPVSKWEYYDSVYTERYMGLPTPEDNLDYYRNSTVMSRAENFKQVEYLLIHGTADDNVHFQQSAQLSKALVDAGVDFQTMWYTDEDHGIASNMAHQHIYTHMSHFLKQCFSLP

| Compound | Inactivation Index [1] | IC50 [1, 8] | IC50 [1, 9] | further results |
| --- | --- | --- | --- | --- |
| N[C@@H](CCCC(=O)O)C(=S)N1CCC[C@H]1B(O)O [Aad-boroPro Thioxamide] | 12,000 | 1.6 nM | 19000 nM | – |
| N[C@@H](CCCC(=O)O)C(=O)N1CCC[C@H]1B(O)O [Aad-boroPro, reference compound] | 1,600 | 4.5 nM | 7400 nM | – |
| C[C@H](NC(=S)[C@H](C)N)B(O)O [Ala-boroAla Thioxamide] | 1.2 | 6500 nM | 7700 nM | – |
| C[C@H](NC(=O)[C@H](C)N)B(O)O [Ala-boroAla, reference compound] | 7.0 | 63 nM | 440 nM | – |
| CC(C)C[C@H](NC(=S)[C@H](C)N)B(O)O [Ala-boroLeu Thioxamide] | – | – | – | Inactivation Index [2]: 110 |
| CC(C)C[C@H](NC(=O)[C@H](C)N)B(O)O [Ala-boroLeu, reference compound] | – | – | – | Inactivation Index [2]: 3.2 |
| C[C@H](N)C(=S)N1CCC[C@H]1B(O)O [Ala-boroPro Thioxamide] | – | – | – | half-life [3]: 47 min; half-life [4]: 60 min |
| C[C@H](N)C(=O)N1CCC[C@H]1B(O)O [Ala-boroPro, reference compound] | – | – | – | half-life [4]: 30 min |
| N=C(N)NCCC[C@H](N)C(=S)N1CCC[C@H]1B(O)O [Arg-boroPro Thioxamide] | – | 1.2 nM | – | IC50 (pH 8.0) ([1]; pH 8.0, result in words): No inhibition |
| N=C(N)NCCC[C@H](N)C(=O)N1CCC[C@H]1B(O)O [Arg-boroPro, reference compound] | 3,900 | 1.8 nM | 7100 nM | – |
| CC(C)C[C@H](NC(=S)[C@@H](N)CC(=O)O)B(O)O [Asp-boroLeu Thioxamide] | – | – | – | Inactivation Index [2]: 2.2 |
| N[C@@H](CC(=O)O)C(=S)N1CCC[C@H]1B(O)O [Asp-boroPro Thioxamide] | 1,700 | 17 nM | 28000 nM | – |
| N[C@H](C(=S)N1CCC[C@H]1B(O)O)C1CCCCC1 [Chg-boroPro Thioxamide] | 2,300 | 4 nM | 9000 nM | – |
| N[C@@H](CCC(=O)O)C(=S)N1CCC[C@H]1B(O)O [Glu-boroPro Thioxamide] | 190 | 4.6 nM | 890 nM | DP9 Ratio [5]: 180; Ratio DP9 To DPIV (pH 2) ([5]; pH 2): 1.9; IC50 ([5]; pH 2, read-out: IC50s DP9 pH 2): 8.7 nM; IC50 [5, 10]: 1800 nM; DPPIV Ratio [6]: 190; IC50 [6, 11]: 4.6 nM; IC50 [6, 12]: 890 nM; DP8 Ratio [7]: 130; Ratio DPP8 to DPIV (pH 2) ([7]; pH 2): 3.4; IC50 ([7]; pH 2, read-out: IC50s DP8 pH 2): 16 nM; IC50 [7, 13]: 2000 nM |
| N[C@@H](CCC(=O)O)C(=O)N1CCC[C@H]1B(O)O [Glu-boroPro, reference compound] | 500 | 6 nM | 3000 nM | – |
| CC(C)C[C@H](NC(=S)CN)B(O)O [Gly-boroLeu Thioxamide] | – | – | – | Inactivation Index [2]: 20 |
| CC(C)C[C@H](NC(=O)CN)B(O)O [Gly-boroLeu, reference compound] | – | – | – | Inactivation Index [2]: 11 |
| NCC(=S)N1CCC[C@H]1B(O)O [Gly-boroPro Thioxamide] | 630 | 3 nM | 1900 nM | – |

| Compound | Inactivation Index [1] | IC50 [1, 8] | IC50 [1, 9] | further results |
| --- | --- | --- | --- | --- |
| NCC(=O)N1CCC[C@H]1B(O)O [Gly-boroPro, reference compound] | 7,000 | 1 nM | 7000 nM | – |
| OB(O)[C@@H]1CCCN1C(=S)CNCc1ccccc1 [N-(Benzyl)-Gly-boroPro Thioxamide] | 7.1 | 24 nM | 170 nM | – |
| O=C(CNCc1ccccc1)N1CCC[C@H]1B(O)O [N-(Benzyl)-Gly-boroPro, reference compound] | 7,300 | 9.5 nM | 69000 nM | – |
| CC(C)C[C@H](NC(=S)CNC(=O)c1cnccn1)B(O)O [N-(Pyrazine-2-carbonyl)-Gly-boroLeu Thioxamide] | – | – | – | Inactivation Index [2]: 3.8 |
| CC(C)C[C@H](NC(=O)CNC(=S)c1cnccn1)B(O)O [N-(Pyrazine-2-carbothio)-Gly-boroLeu] | – | – | – | Inactivation Index [2]: 4.5 |
| OB(O)[C@@H]1CCCN1C(=S)CNC12CC3CC(CC(O)(C3)C1)C2 [NVP-LAF237 analogue Thioxamide] | 250 | 160 nM | 40000 nM | – |
| O=C(CNC12CC3CC(CC(O)(C3)C1)C2)N1CCC[C@H]1B(O)O [NVP-LAF237 analogue, reference compound] | 1.7 | 42 nM | 72 nM | – |
| CC(C)C[C@H](NC(=O)[C@@H](N)Cc1ccccc1)B(O)O [Phe-boroLeu (free Velcade), Phe-boroLeu, reference compound] | – | – | – | Inactivation Index [2]: 7.5 |
| CC(C)C[C@H](NC(=S)[C@@H](N)Cc1ccccc1)B(O)O [Phe-boroLeu Thioxamide] | – | – | – | Inactivation Index [2]: 20 |
| OB(O)[C@@H]1CCCN1C(=S)[C@@H]1CCCN1 [Pro-boroPro Thioxamide] | 1,100 | 6.4 nM | 7000 nM | DP9 Ratio [5]: 180; Ratio DP9 To DPIV (pH 2) ([5]; pH 2): 2.5; IC50 ([5]; pH 2, read-out: IC50s DP9 pH 2): 1.9 nM; IC50 [5, 10]: 340 nM; IC50 [6, 11]: 0.75 nM; DP8 Ratio [7]: 720; Ratio DPP8 to DPIV (pH 2) ([7]; pH 2): 3.2; IC50 ([7]; pH 2, read-out: IC50s DP8 pH 2): 2.5 nM; IC50 [7, 13]: 1800 nM |
| O=C([C@@H]1CCCN1)N1CCC[C@H]1B(O)O [Pro-boroPro, reference compound] | 21,000 | 1.1 nM | 23000 nM | – |
| CC(C)C[C@H](NC(=S)CNC(=S)c1cnccn1)B(O)O [Pyz-Gly-boroLeu Perthioxamide] | – | – | – | Inactivation Index [2]: 620 |
| N[C@@H](Cc1c[nH]c2ccccc12)C(=S)N1CCC[C@H]1B(O)O [Trp-boroPro Thioxamide] | 440 | 1.6 nM | 700 nM | – |
| N[C@@H](Cc1c[nH]c2ccccc12)C(=O)N1CCC[C@H]1B(O)O [Trp-boroPro, reference compound] | 1500 | 2 nM | 3000 nM | – |
| CC(C)[C@H](N)C(=S)N[C@@H](C)B(O)O [Val-boroAla Thioxamide] | 3.0 | 73 nM | 220 nM | – |
| Chg-boroPro [reference compound] | 380 | 1 nM | 380 nM | – |
| Pro-boroAla (thioxam) | – | – | – | DP9 Ratio [5]: 1.3; Ratio DP9 To DPIV (pH 2) ([5]; pH 2): 1.1; IC50 ([5]; pH 2, read-out: IC50s DP9 pH 2): 85 nM; IC50 [5, 10]: 110 nM; DPPIV Ratio [6]: 4.1; IC50 [6, 11]: 76 nM; IC50 [6, 12]: 310 nM; DP8 Ratio [7]: 2.2; Ratio DPP8 to DPIV (pH 2) ([7]; pH 2): 1.8; IC50 ([7]; pH 2, read-out: IC50s DP8 pH 2): 140 nM; IC50 [7, 13]: 310 nM |
